From PubChem BioAssay AID1996 come the findings set out here.

By kinetic solubility is commonly meant the concentration staying in solution when a stock, usually in DMSO, is diluted into the medium.

In brackets after ≈: the same amount, converted by molar mass. Bounds are passed on as bounds.

The conditions of this series: buffer; pH 7.4; 200.0 µM.
`O=C(Nc1cccc(F)c1)C1CCN(C(=O)c2ccco2)CC1` gave a kinetic solubility of 44.4 µg/mL (≈ 140 µM).
With `COc1cccc(NC(=O)Nc2ccc3c(c2)CCC3)c1` the figure was 0.3 µg/mL (≈ 1.06 µM); with `COC(=O)c1ccc(CO/N=C/c2ccccc2OC)cc1`, 2.6 µg/mL (≈ 8.69 µM).
In the case of `c1ccc(CNc2nc(-c3ccccc3)nc3ccccc23)cc1` it was 1.2 µg/mL (≈ 3.85 µM); in that of `COc1ccccc1NC(=O)c1sc(Cl)nc1C`, 36.8 µg/mL (≈ 130 µM); in that of `C=CCNC(=O)C1CCC(C(=O)NCC=C)CC1` (configuration not stated), > 37.6 µg/mL.
With `COc1cc(C(=O)OCC(=O)NCC2CCCO2)cc(OC)c1OC` (configuration not stated) the figure was > 53 µg/mL; with `Cc1cccnc1NC(=O)CNC(=O)COc1ccccc1`, > 44.9 µg/mL.
As for `COc1ccc(S(=O)(=O)n2c([N+](=O)[O-])cnc2C)c(C)c1C`, the kinetic solubility is 45.2 µg/mL (≈ 139 µM).
With `O=C(Nc1ccccc1)N(c1ccccc1)C1C=CS(=O)(=O)C1` (configuration not stated) the figure was > 49.3 µg/mL; with `CCOc1ccc(N/C(N)=N/c2nc(C)c(C)c(=O)[nH]2)cc1`, 2.3 µg/mL (≈ 7.63 µM); with `CC(=O)c1ccc(S(=O)(=O)N2CCN(C(C)=O)CC2)cc1`, > 46.6 µg/mL.
In the case of `Cc1cccc(Nc2nc(-c3ccc(O)cc3O)cs2)n1` it was 4.7 µg/mL (≈ 15.7 µM); in that of `C[C@H](Cc1ccccc1)Nc1ncnc2c1ncn2[C@@H]1O[C@H](CO)[C@@H](O)[C@H]1O`, > 57.8 µg/mL.
With `CCc1ccc(N2C(=O)C3C4C=CC(CC4)C3C2=O)cc1` (configuration not stated) the figure was 14.3 µg/mL (≈ 50.8 µM).
In the case of `COc1ccc(CC(=O)NC2CC2)cc1OC`, the solubility (kinetic) was > 35.3 µg/mL.
With `CN(C)/C=N/c1sc2c(c1C(N)=O)CCCC2` the figure was 19.4 µg/mL (≈ 77.2 µM); with `CN(CCO)c1nc(N)c(C#N)c(CC#N)c1C#N`, > 38.4 µg/mL.
In the case of `CC(C)Sc1sc(C(=O)O)c(-c2ccc(Cl)cc2)c1C#N` it was > 50.7 µg/mL; in that of `COc1ccc(OCC(O)CN2CCOCC2)cc1` (configuration not stated), 40.1 µg/mL (≈ 150 µM); in that of `COc1c2c(nc3occc13)C(CC=C(C)C)(OC)C(=O)C=C2` (configuration not stated), > 47 µg/mL.
With `Cc1c(C#N)c2ccccc2n1C` the figure was 19.9 µg/mL (≈ 117 µM); with `O=c1c2[nH]c3ccc(Br)cc3c2ncn1Cc1ccncc1`, 0.4 µg/mL (≈ 1.13 µM).
Regarding `Cc1ccc(OCC(O)CN2CCOCC2)c(C)c1.Cl` (configuration not stated), the solubility (kinetic) is > 45.3 µg/mL.
Turning to `CCC(=O)N1c2ccc(S(=O)(=O)N3CCCC3)cc2CC1C` (configuration not stated), the kinetic solubility turned out to be 33.5 µg/mL (≈ 104 µM).
In the case of `O=C1C2C3CCC(CC3)C2C(=O)N1c1ccccc1` (configuration not stated) it was 11.6 µg/mL (≈ 45.4 µM); in that of `COc1ccc(CC(=O)O/N=C(\N)c2ccccn2)cc1`, > 42.8 µg/mL; in that of `O=C(CSc1nccc(=O)[nH]1)N1CCOCC1`, > 38.3 µg/mL.
In the case of `COc1ccccc1NC(=O)c1ccc(NC(=O)C2CC2C)cc1` (configuration not stated) it was 10.3 µg/mL (≈ 31.8 µM).
With `N#Cc1ccc(OCC(=O)NC2=NCCS2)cc1` the figure was > 39.2 µg/mL; with `Cc1cccc(Nc2nc(CC(=O)O)cs2)c1`, 24.6 µg/mL (≈ 99.1 µM); with `CCOc1ccc(-n2c(-c3cccs3)nc3ccccc3c2=O)cc1`, 0.5 µg/mL (≈ 1.44 µM).
In turn, `O=C(Nc1nc(-c2ccccc2)ns1)c1ccncc1` registered a solubility (kinetic) of 2.4 µg/mL (≈ 8.5 µM).
In the case of `COc1ccc(S(=O)(=O)N2CCOCC2)cc1NC(=O)CN(C)CC(=O)Nc1cccc(F)c1` it was > 74.2 µg/mL.
In the case of `Fc1cccc(Cl)c1CNc1ccc(N2CCCC2)cc1` it was 0.7 µg/mL (≈ 2.3 µM); in that of `COc1ccc(OCC(=O)C2CC2)c(C#N)c1`, 27.5 µg/mL (≈ 119 µM).
In the case of `CC(C)c1ccc(NC(=O)C2CSC3(C)CCC(=O)N23)cc1` (configuration not stated) it was 24.9 µg/mL (≈ 78.2 µM).
`CC(C(=O)Nc1cc(Cl)cc(Cl)c1)N1CCCC1` (configuration not stated): the solubility (kinetic) is > 43.1 µg/mL.
For `CC(C)(C)NC(=O)CSCc1ccc(Br)cc1`, the kinetic solubility is > 47.4 µg/mL.
Turning to `Cc1ccc(S(=O)(=O)N(C)CC(=O)NNC(=O)CCNS(=O)(=O)c2cccc(C)c2)cc1`, the solubility (kinetic) was > 72.4 µg/mL.
With `Cn1cccc1C1C(C#N)=C(N)OC2=C1C(=O)CC(C)(C)C2` (configuration not stated) the figure was 43.2 µg/mL (≈ 145 µM); with `Cc1ccc(S(=O)(=O)N2CCN(c3ccccc3)CC2)c(C)c1`, 3 µg/mL (≈ 9.08 µM); with `C=C1c2cc3c(cc2NC(=S)N1Cc1ccccc1)OCO3`, 9.8 µg/mL (≈ 31.6 µM).
With `CC(C)OC(=O)/C(C#N)=C\c1cccnc1` the figure was 28.2 µg/mL (≈ 130 µM).
For the molecule `CC1CCCN(C(=O)CNS(=O)(=O)c2cccs2)C1` (configuration not stated), the kinetic solubility is > 45.4 µg/mL.
`CN(C)c1c(F)cc(C(=O)NC(=O)NCc2cccnc2)cc1F`: the kinetic solubility turned out to be 4 µg/mL (≈ 12 µM).
In the case of `CC1CCC(NS(=O)(=O)c2ccc(Cl)nc2)CC1` (configuration not stated) it was 33.9 µg/mL (≈ 117 µM); in that of `COc1ccccc1C(=O)NCCC(=O)NCC1CCCO1` (configuration not stated), > 46 µg/mL.
In the case of `Cc1ccc(S(=O)(=O)Nc2ccc(Nc3ccccc3)cc2)cc1` it was 2.5 µg/mL (≈ 7.39 µM); in that of `CN(C)C(=O)COC(=O)c1ccccc1NC(=O)c1ccco1`, > 47.4 µg/mL.
In the case of `CC(C)(C)NCC(O)COc1cccc2[nH]c(=O)[nH]c12.Cl` (configuration not stated) it was > 47.4 µg/mL; in that of `COc1cc(OC)nc(Oc2ccc(N)c(C)c2)n1`, > 39.2 µg/mL.
